This note sets out measurements from patent US7582786B2, “Synthetic catalytic free radical scavengers useful as antioxidants for prevention and therapy of disease” (Eukarion Inc., priority 1996, dated 2009).

Data set [1] is described as follows: Peroxidase activity with t-BHP as substrate, ABTS oxidation. It is filed as biochemical. The procedure: Peroxidase activity was assayed by monitoring the hydrogen peroxide-dependent oxidation of 2,2′-azino-bis(3-ethylbenzthiazoline-6) sulfonic acid (ABTS) spectrophotometrically. Standard assay mixtures consisted of 50 mM sodium phosphate, pH 8.1, 0.9% sodium chloride, 0.5 mM ABTS, and H2O2 and salen manganese complex as indicated. Where indicated, 50 mM sodium phosphate buffers of pH 6.0 or pH 7.1 were substituted. Assays were conducted at 27±0.2° C. ABTS oxidation was monitored at 740 or 500 nm to eliminate interference by the salen manganese complexes, many of which absorb in the vicinity of the λmax of oxidized ABTS, and to avoid absorbance values that exceeded the linear range of the spectrophotometer. The amount of oxidized ABTS was estimated using an Δε740 of 20,300 M^−1cm^−1 or an Δε500 of 3400 M^−1cm^−1 calculated based upon the published molar extinction coefficient oat 405 nm (36,800).
(In comparison, horseradish peroxidase utilized t-BHP with an ABTS oxidation rate that was about 5.4% of the rate with H2O2).

Data set [2] is described as follows: Peroxidase activity, H2O2-dependent oxidation of ABTS (Example 2). The note with it: for Peroxidase rate: 10 μM salen manganese complex, 0.2 mM H2O2; for Peroxidase: relative to C7 (C7 = 100). It is filed as biochemical. In a few lines:
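ABTS oxidation by salen manganese complex (10 μM) with 0.2 mM H2O2 in 50 mM sodium phosphate pH 8.1 (or pH 6.0/7.1 where indicated), 0.9% NaCl, 0.5 mM ABTS, 27±0.2 °C. Oxidized ABTS read spectrophotometrically at 740 or 500 nm and quantified from Δε740 20,300 or Δε500 3400 M^−1cm^−1.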

The next data set relates to brain homogenates. In words: Iron-induced lipid peroxidation in brain homogenates (MDA). It is filed as biochemical, rat. As for the experimental part: Lipid peroxidation was induced by incubating a mixture consisting of 0.25 ml homogenate, 0.25 ml ASCF with test compounds, and 10 μM FeCl2 for 1 hr at 35° C. under an atmosphere equilibrated with O2:CO2(95:5). Following the incubation, 0.1 ml of the sample was extracted with trichloroacetic acid and analyzed for thiobarbituric acid reactive material as described previously, using authentic malonyldialdehyde (MDA) as a standard.

Data set [3] relates to Human dermal fibroblasts (HF cells). Kind of data set: Cell protection assay, tert-butylhydroperoxide (t-BHP) toxicity, XTT. Format: cell-based. As for the experimental part: Human dermal fibroblasts (HF cells) were obtained from the American type tissue Culture Collection at passage 1 and cultured and propagated in a medium (HF medium) consisting of Dulbecco's Modified Eagle's Medium with 4.5 g/l D-glucose, 10% calf serum 4 mM glutamine, 50 units/ml penicillin, and 50 μg/ml streptomycin in a 37° C. humidified incubator equilibrated with 5% CO2. Cells were used at passages 5 or 6 for experiments. For cell protection assays, HF cells were seeded at a density of about 15,000 cells per cm2 onto 96-well culture plates and allowed to grow to confluence. To assess protection tert-butylhydroperoxide (t-BHP) toxicity, confluent cell layers were first treated with the indicated concentrations of test compounds dissolved in HF medium for 18 hr. The medium was then replaced with fresh medium containing test compounds and 0.5 mM tert-butylhydroperoxide (t-BHP) and cells were incubated for another 18 hr. The medium was then removed and replaced with fresh HF medium (100 μl per well) without test compounds or t-BHP. Fifty μl of XTT reagent (Boeringer Mannheim, Inc.), prepared as described by the manufacturer, was then added to each well and the plates returned to the incubator. After 2 hr., the absorbance at 490 nm was measured in a BioRad (Richmond, Calif.) Model 3550 plate-reader, using a reference wavelength of 655 nm. Control cells that had not been exposed to test compounds or toxic agents were included among the samples treated with XTT reagent. Absorbance measurements for blank wells, containing HF medium and XTT reagent but no cells, were also determined. To analyze protection from glucose/glucose oxidase toxicity, confluent cell layers were incubated with HF medium containing glucose oxidase (0.019 units/ml) along with test compounds, as indicated, for 18 hr in the tissue culture incubator. Fresh HF medium was then added and cell viability assessed using the XTT reagent as described above. For both these models, concentrations of toxic agents were selected that were reproducibly completely lethal. Cytotoxicity assessments were routinely confirmed by visual inspection of the cell layers prior to addition of the XTT reagent.
A general note: Formazan colour is commonly taken as a measure of viable cells.

Data set [4] has the same test system. In words: Cell protection assay, glucose/glucose oxidase toxicity, XTT. Format: cell-based. The note with it: for protection against glucose and glucose oxidase: glucose oxidase 0.019 units/ml. The method in brief: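 Confluent HF fibroblasts (passage 5–6) were incubated 18 h at 37 °C with test compounds plus glucose oxidase (0.019 units/ml) in DMEM containing 4.5 g/l glucose, a reproducibly lethal level. Viability was read by XTT after 2 h as absorbance at 490 nm (reference 655 nm), relative to untreated and cell-free blanks.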

`[Cl][Mn]1[O]c2ccccc2C=NCCN=Cc2ccccc2[O]1` [Compound C7]: the “ABTS oxidation rate with t-BHP, percent of rate with H2O2” value in data set [1] (1 mM t-BHP) was “about 0.5%”. Besides, the “peroxidase activity (in words)” value in data set [2] is reported as “exhibits peroxidase activity”. Besides, the ABTS oxidized result in data set [2] (10 μM C7, 1 mM H2O2, pH 8.1) was “up to 88 μM”. Moreover, in data set [2] (10 μM C7, 1 mM H2O2, pH 8.1), the peroxidase turnovers result is on record as “over 8 turnovers”. The compound also yielded a Peroxidase rate in data set [2] of 20.0 ± 0.5 μM ABTS oxidized/min. In data set [2], the Peroxidase is reported as 100. In addition, the “MDA levels, percent of control” value in the data set with brain homogenates (1 μM) is listed as 110%; in the data set on brain homogenates (5 μM), 84%; in the data set on brain homogenates (10 μM), 22%; in the data set on brain homogenates (25 μM) it was 4%. Moreover, the “Cell viability, absorbance at 490 nm uncorrected for blank” value (from here on “Cell viability, absorbance”) in data set [3] (2.5 μM, t-BHP 0.5 mM) was 0.28 ± 0.01; in data set [3] (5 μM, t-BHP 0.5 mM), 0.68 ± 0.31; in data set [3] (10 μM, t-BHP 0.5 mM) it was 1.45 ± 0.05; in data set [3] (20 μM, t-BHP 0.5 mM) it was 1.44 ± 0.05; in data set [3] (40 μM, t-BHP 0.5 mM), 1.42 ± 0.03; in data set [3] (80 μM, t-BHP 0.5 mM), 0.77 ± 0.41. Also, the “synergistic toxicity with t-BHP” value in data set [3] (80 μM) was “possible synergistic toxicity”.
For the compound `COc1cccc2c1[O][Mn]([O]C(C)=O)[O]c1c(cccc1OC)C=NCCN=C2` [Compound C32], the “peroxidase rate with t-BHP relative to C7” value in data set [1] is recorded as about 3 fold. Moreover, the “peroxidase activity (in words)” value in data set [2] was “fastest peroxidases”. The same compound had a Peroxidase rate in data set [2] of 34.2 ± 1.5 μM ABTS oxidized/min. This compound also gave a Peroxidase in data set [2] of 203. Moreover, the “MDA levels, percent of control” value is on record as 104% with brain homogenates (1 μM), 35% in the data set with brain homogenates (5 μM), 13% with brain homogenates (10 μM) and 8% in the data set with brain homogenates (25 μM). The “Cell viability, absorbance” value in data set [3] (2.5 μM, t-BHP 0.5 mM) worked out at 0.29 ± 0.01; in data set [3] (5 μM, t-BHP 0.5 mM), 0.28 ± 0.01; in data set [3] (10 μM, t-BHP 0.5 mM) it was 1.35 ± 0.05; in data set [3] (20 μM, t-BHP 0.5 mM), 1.43 ± 0.05; in data set [3] (40 μM, t-BHP 0.5 mM), 1.48 ± 0.06; in data set [3] (80 μM, t-BHP 0.5 mM), 1.40 ± 0.07. The “protection against glucose and glucose oxidase (in words)” value in data set [4] was “more protective than C43”. Besides, the “protection against glucose and glucose oxidase” value is “significant protection” in data set [4] (40 μM) and “complete protection” in data set [4] (80 μM).
For `COc1cc(OC)c2c(c1)[O][Mn]([O]C(C)=O)[O]c1cc(OC)cc(OC)c1C=NCCN=C2` [Compound C35], in data set [1], the “peroxidase activity toward t-BHP, percent of C7” value is recorded as “less than 2%”. Moreover, the “peroxidase activity (in words)” value in data set [2] was “undetectable activity”. In data set [2], this compound had a Peroxidase rate of −0.1 ± 0.1 μM ABTS oxidized/min. Also, the Peroxidase in data set [2] was determined as 0. For the same compound, the “inhibition of lipid peroxidation (in words)” value with brain homogenates is reported as “very potent”. Further, the “MDA levels, percent of control” value in the data set on brain homogenates (1 μM) came to 82%; with brain homogenates (5 μM) it was 5%; in the data set on brain homogenates (10 μM), 4%; in the data set on brain homogenates (25 μM) it was 3%. Also, the “Cell viability, absorbance” value in data set [3] (2.5 μM, t-BHP 0.5 mM) is recorded as 0.27 ± 0.01; in data set [3] (5 μM, t-BHP 0.5 mM), 0.27 ± 0.01; in data set [3] (10 μM, t-BHP 0.5 mM) it was 0.29 ± 0.03; in data set [3] (20 μM, t-BHP 0.5 mM), 1.40 ± 0.05; in data set [3] (40 μM, t-BHP 0.5 mM), 1.52 ± 0.07; in data set [3] (80 μM, t-BHP 0.5 mM), 0.57 ± 0.01. Besides, in data set [3] (80 μM, without t-BHP), the “toxicity of compound alone” value is on record as “equivalent toxicity with or without t-BHP”. Moreover, the “concentration at which protection was observed” value in data set [3] (t-BHP 0.5 mM) is at least 20 µM. Besides, the “protection against glucose and glucose oxidase (in words)” value in data set [4] is listed as “not cytoprotective”.
`COc1cccc2c1[O][Mn]([Cl])[O]c1c(cccc1OC)C=NCCN=C2` [Compound C40]: in data set [2], the “peroxidase activity (in words)” value is “fastest peroxidases”, the Peroxidase rate was 32.9 ± 0.2 μM ABTS oxidized/min and the Peroxidase was found to be 203. In addition, in data set [4] (40 μM), the “protection against glucose and glucose oxidase” value is reported as “significant protection”. In addition, the “protection against glucose and glucose oxidase” value in data set [4] (80 μM) is listed as “complete protection”.
